In the NIST ThermoML archive (doi:10.1021/je300902c):
± gives the expanded uncertainty stated by the source.

What was measured:
[1] = Molar enthalpy of transition or fusion; details: DSC
[2] = molar enthalpy of vaporization or sublimation; details: 298 K; Liquid; DSC

CCCCCCCCCCCCCCCCCCCCCC(=O)O [docosanoic acid]
Triple point temperature (Crystal 2, DTA): 340.9 ± 0.5 K
Normal melting temperature (Crystal, DSC/DTA): 79.2 ± 0.4 °C
Molar enthalpy of transition or fusion ([1]; Crystal 2): 3.57 ± 0.62 kJ/mol
Molar enthalpy of transition or fusion ([1]; Crystal): 66.3 ± 1.4 kJ/mol
molar enthalpy [2]: 155 ± 15 kJ/mol
